Results taken from the OligoGym collection.
HELM strings list units from the 5' end as sugar, base in round brackets, then linkage (d deoxyribose, r ribose, m 2'-O-methyl, p phosphodiester). Strings are as the collection lists them; they lack the last nucleoside at the 3' end of the tested compound. [moe] = 2'-O-(2-methoxyethyl) (MOE); [sp] = phosphorothioate linkage; [m5C] = 5-methylcytosine

Target: GFAP
Experiment: mouse, dose not given
Conditions: ASO

Row | Substance | 3 h FOB score
1 | RNA1{[moe](A)[sp].[moe](A)p.[moe](A)p.[moe](G)p.[moe](G)p.[moe]([m5C])p.d(A)[sp].d([m5C])[sp].d(A)[sp].d(G)[sp].d(T)[sp].d(T)[sp].d([m5C])[sp].d([m5C])[sp].d([m5C])[sp].d(A)[sp].[moe](G)p.[moe](A)[sp].[moe](T)}$$$$ (last 3' nucleoside missing) | 2 score 0-7
2 | RNA1{[moe](A)[sp].[moe](A)p.[moe](A)p.[moe](G)p.[moe](G)p.d([m5C])[sp].d(A)[sp].d([m5C])[sp].d(A)[sp].d(G)[sp].d(T)[sp].d(T)[sp].d([m5C])[sp].d([m5C])[sp].d([m5C])[sp].[moe](A)p.[moe](G)p.[moe](A)[sp].[moe](T)}$$$$ (last 3' nucleoside missing) | 2 score 0-7
3 | RNA1{[moe](A)[sp].[moe](A)p.[moe](G)p.[moe](G)p.[moe]([m5C])p.[moe](A)p.d([m5C])[sp].d(A)[sp].d(G)[sp].d(T)[sp].d(T)[sp].d([m5C])[sp].d([m5C])[sp].d([m5C])[sp].d(A)[sp].d(G)[sp].[moe](A)p.[moe](T)[sp].[moe](A)}$$$$ (last 3' nucleoside missing) | 2 score 0-7
4 | RNA1{[moe](A)[sp].[moe](A)p.[moe](G)p.[moe]([m5C])p.[moe](T)[sp].d([m5C])[sp].d(T)[sp].d(G)[sp].d(A)[sp].d(G)[sp].d([m5C])[sp].d(T)[sp].d(G)[sp].d(T)[sp].d(G)[sp].[moe](G)p.[moe](T)p.[moe](G)[sp].[moe](T)}$$$$ (last 3' nucleoside missing) | 4 score 0-7
5 | RNA1{[moe](A)[sp].[moe](A)p.[moe](T)p.[moe]([m5C])p.[moe](A)[sp].d(A)[sp].d(G)[sp].d([m5C])[sp].d(T)[sp].d([m5C])[sp].d([m5C])[sp].d([m5C])[sp].d(A)[sp].d([m5C])[sp].d([m5C])[sp].[moe](T)p.[moe](G)p.[moe]([m5C])[sp].[moe]([m5C])}$$$$ (last 3' nucleoside missing) | 0 score 0-7
6 | RNA1{[moe](A)[sp].[moe](A)p.[moe](T)p.[moe]([m5C])p.[moe](A)[sp].d(T)[sp].d(T)[sp].d(T)[sp].d([m5C])[sp].d(A)[sp].d(G)[sp].d(G)[sp].d(G)[sp].d([m5C])[sp].d([m5C])[sp].[moe](A)p.[moe](A)p.[moe](T)[sp].[moe](G)}$$$$ (last 3' nucleoside missing) | 5 score 0-7
7 | RNA1{[moe](A)[sp].[moe](G)p.[moe](A)p.[moe](G)p.[moe](A)[sp].d(T)[sp].d(G)[sp].d(G)[sp].d(G)[sp].d(T)[sp].d(G)[sp].d(A)[sp].d(G)[sp].d(G)[sp].d(T)[sp].[moe](G)p.[moe](A)p.[moe](G)[sp].[moe](G)}$$$$ (last 3' nucleoside missing) | 7 score 0-7
8 | RNA1{[moe](A)[sp].[moe](G)p.[moe](A)p.[moe](G)p.[moe](T)[sp].d(G)[sp].d(T)[sp].d(G)[sp].d(T)[sp].d(A)[sp].d(T)[sp].d(T)[sp].d(A)[sp].d(G)[sp].d(G)[sp].[moe](A)p.[moe](T)p.[moe]([m5C])[sp].[moe]([m5C])}$$$$ (last 3' nucleoside missing) | 5 score 0-7
9 | RNA1{[moe](A)[sp].[moe](G)p.[moe](A)p.[moe](G)p.d(T)[sp].d(G)[sp].d(T)[sp].d(G)[sp].d(T)[sp].d(A)[sp].d(T)[sp].d(T)[sp].d(A)[sp].d(G)[sp].[moe](G)p.[moe](A)p.[moe](T)p.[moe]([m5C])[sp].[moe]([m5C])}$$$$ (last 3' nucleoside missing) | 5 score 0-7
10 | RNA1{[moe](A)[sp].[moe](G)p.[moe](A)p.[moe](T)p.[moe](A)[sp].d(T)[sp].d([m5C])[sp].d(T)[sp].d(T)[sp].d(G)[sp].d(T)[sp].d(G)[sp].d(A)[sp].d([m5C])[sp].d([m5C])[sp].[moe](T)p.[moe](T)p.[moe](G)[sp].[moe](T)}$$$$ (last 3' nucleoside missing) | 6 score 0-7
11 | RNA1{[moe](A)[sp].[moe](G)p.[moe](G)p.[moe](G)p.[moe](T)[sp].d(G)[sp].d(G)[sp].d([m5C])[sp].d(T)[sp].d(T)[sp].d([m5C])[sp].d(A)[sp].d(T)[sp].d([m5C])[sp].d(T)[sp].[moe](G)p.[moe]([m5C])p.[moe](T)[sp].[moe](T)}$$$$ (last 3' nucleoside missing) | 2 score 0-7
12 | RNA1{[moe](A)[sp].[moe](G)p.[moe](G)p.[moe]([m5C])p.[moe](A)p.[moe]([m5C])p.d(A)[sp].d(G)[sp].d(T)[sp].d(T)[sp].d([m5C])[sp].d([m5C])[sp].d([m5C])[sp].d(A)[sp].d(G)[sp].d(A)[sp].[moe](T)p.[moe](A)[sp].[moe]([m5C])}$$$$ (last 3' nucleoside missing) | 1 score 0-7
13 | RNA1{[moe](A)[sp].[moe](G)p.[moe](G)p.[moe]([m5C])p.[moe](T)[sp].d(T)[sp].d(T)[sp].d(T)[sp].d(G)[sp].d(A)[sp].d(G)[sp].d(A)[sp].d(T)[sp].d(A)[sp].d(T)[sp].[moe]([m5C])p.[moe](T)p.[moe](T)[sp].[moe](G)}$$$$ (last 3' nucleoside missing) | 6 score 0-7
14 | RNA1{[moe](A)[sp].[moe](G)p.[moe](T)p.[moe](A)p.[moe](T)[sp].d(T)[sp].d(A)[sp].d([m5C])[sp].d([m5C])[sp].d(T)[sp].d([m5C])[sp].d(T)[sp].d(A)[sp].[moe]([m5C])p.[moe](T)p.[moe](A)[sp].[moe](G)}$$$$ (last 3' nucleoside missing) | 3 score 0-7
15 | RNA1{[moe](A)[sp].[moe](G)p.[moe](T)p.[moe](G)p.[moe](A)[sp].d([m5C])[sp].d([m5C])[sp].d(T)[sp].d(G)[sp].d(T)[sp].d(G)[sp].d(A)[sp].d([m5C])[sp].d(T)[sp].d(A)[sp].[moe](T)p.[moe]([m5C])p.[moe](T)[sp].[moe](A)}$$$$ (last 3' nucleoside missing) | 6 score 0-7
16 | RNA1{[moe](A)[sp].[moe](G)p.[moe](T)p.[moe](G)p.[moe](T)[sp].d(G)[sp].d(T)[sp].d(A)[sp].d(T)[sp].d(T)[sp].d(A)[sp].d(G)[sp].d(G)[sp].d(A)[sp].d(T)[sp].[moe]([m5C])p.[moe]([m5C])p.[moe]([m5C])[sp].[moe](A)}$$$$ (last 3' nucleoside missing) | 5 score 0-7
17 | RNA1{[moe](A)[sp].[moe](G)p.[moe](T)p.[moe](G)p.[moe](T)p.[moe](G)p.d(T)[sp].d(A)[sp].d(T)[sp].d(T)[sp].d(A)[sp].d(G)[sp].d(G)[sp].d(A)[sp].d(T)[sp].d([m5C])[sp].[moe]([m5C])p.[moe]([m5C])[sp].[moe](A)}$$$$ (last 3' nucleoside missing) | 4 score 0-7
18 | RNA1{[moe](A)[sp].[moe](G)p.[moe](T)p.[moe](G)p.d(T)[sp].d(G)[sp].d(T)[sp].d(A)[sp].d(T)[sp].d(T)[sp].d(A)[sp].d(G)[sp].d(G)[sp].d(A)[sp].[moe](T)p.[moe]([m5C])p.[moe]([m5C])p.[moe]([m5C])[sp].[moe](A)}$$$$ (last 3' nucleoside missing) | 5 score 0-7
19 | RNA1{[moe](A)[sp].[moe](G)p.[moe](T)p.[moe]([m5C])p.[moe](A)[sp].d(G)[sp].d([m5C])[sp].d([m5C])[sp].d(T)[sp].d(G)[sp].d(G)[sp].d(T)[sp].d(T)[sp].[moe](A)p.[moe](G)p.[moe]([m5C])[sp].[moe]([m5C])}$$$$ (last 3' nucleoside missing) | 2 score 0-7
20 | RNA1{[moe](A)[sp].[moe](G)p.[moe](T)p.[moe]([m5C])p.[moe](A)[sp].d(G)[sp].d([m5C])[sp].d([m5C])[sp].d(T)[sp].d(G)[sp].d(G)[sp].d(T)[sp].d(T)[sp].d(A)[sp].d(G)[sp].[moe]([m5C])p.[moe]([m5C])p.[moe](T)[sp].[moe](T)}$$$$ (last 3' nucleoside missing) | 6 score 0-7
21 | RNA1{[moe](A)[sp].[moe](G)p.[moe](T)p.[moe]([m5C])p.[moe](A)p.[moe](G)p.d([m5C])[sp].d([m5C])[sp].d(T)[sp].d(G)[sp].d(G)[sp].d(T)[sp].d(T)[sp].d(A)[sp].d(G)[sp].d([m5C])[sp].[moe]([m5C])p.[moe](T)[sp].[moe](T)}$$$$ (last 3' nucleoside missing) | 3 score 0-7
22 | RNA1{[moe](A)[sp].[moe](G)p.[moe](T)p.[moe]([m5C])p.[moe](A)p.d(G)[sp].d([m5C])[sp].d([m5C])[sp].d(T)[sp].d(G)[sp].d(G)[sp].d(T)[sp].d(T)[sp].d(A)[sp].d(G)[sp].[moe]([m5C])p.[moe]([m5C])p.[moe](T)[sp].[moe](T)}$$$$ (last 3' nucleoside missing) | 4 score 0-7
23 | RNA1{[moe](A)[sp].[moe](G)p.[moe](T)p.[moe]([m5C])p.[moe](T)[sp].d([m5C])[sp].d(A)[sp].d(G)[sp].d(T)[sp].d(T)[sp].d(T)[sp].d(T)[sp].d([m5C])[sp].d([m5C])[sp].d(T)[sp].[moe]([m5C])p.[moe]([m5C])p.[moe](A)[sp].[moe](G)}$$$$ (last 3' nucleoside missing) | 2 score 0-7
24 | RNA1{[moe](A)[sp].[moe](G)p.[moe](T)p.[moe]([m5C])p.d(A)[sp].d(G)[sp].d([m5C])[sp].d([m5C])[sp].d(T)[sp].d(G)[sp].d(G)[sp].d(T)[sp].d(T)[sp].d(A)[sp].[moe](G)p.[moe]([m5C])p.[moe]([m5C])p.[moe](T)[sp].[moe](T)}$$$$ (last 3' nucleoside missing) | 3 score 0-7
25 | RNA1{[moe](A)[sp].[moe](G)p.[moe]([m5C])p.[moe](A)p.[moe](T)[sp].d(A)[sp].d(G)[sp].d(G)[sp].d(G)[sp].d(A)[sp].d(T)[sp].d(A)[sp].d(T)[sp].d([m5C])[sp].d([m5C])[sp].[moe]([m5C])p.[moe](A)p.[moe]([m5C])[sp].[moe]([m5C])}$$$$ (last 3' nucleoside missing) | 2 score 0-7
26 | RNA1{[moe](A)[sp].[moe](G)p.[moe]([m5C])p.[moe](A)p.[moe](T)[sp].d(T)[sp].d(T)[sp].d(G)[sp].d(T)[sp].d([m5C])[sp].d(T)[sp].d(T)[sp].d(T)[sp].[moe](A)p.[moe](T)p.[moe](T)[sp].[moe](T)}$$$$ (last 3' nucleoside missing) | 3 score 0-7
